Laboratory results reported in paper PMC9356275, “A quantitative high-throughput screen identifies compounds that lower expression of the SCA2-and ALS-associated gene ATXN2” (The Journal of Biological Chemistry, 2022).
Like-named read-outs stand apart in the source and are kept apart here.

How the values were obtained:
[1] = tested on: ATXN2-luc; experiment: MSSR hit retest: ATXN2-luc luciferase assay, average of H2 and S1 cells (1 and 10 uM); format: cell-based, human; conditions: Homo sapiens; for activity at 1 µM: read-out: H2&S1 ave luc 1uM
Description: (§1) Supplement mmc2.xlsx, sheet "43 annotated compounds"

[2] = tested on: ATXN2-luc; experiment: MSSR pilot screen: ATXN2-luc luciferase assay (Bright-Glo) in H2 cells, single 10 μM dose; format: cell-based, human; conditions: for SD from mean (ATXN2-luc, Z-score): H2 cells, single dose (title: 10 μM compound), overnight; for ¦Score/1SD¦: absolute score divided by 1SD (0.891 or 0.9)
[3] = tested on: H2 and S1 cells; experiment: Paired MTT viability assay, average of H2 and S1 cells (1 and 10 uM); format: cell-based, human; conditions: Homo sapiens
Description: as §1

[4] = tested on: CMV-luc; experiment: MSSR counterscreen: CMV-luc expression in HC cells; format: cell-based, human; conditions: for CMV-luc, averages as percent of no compound control: HC cells, n=4 wells
[5] = tested on: ATXN2-luc; experiment: Secondary assays: ATXN2-luc in S2 and H2 cells, 12 doses, Bright-Glo; format: cell-based, human; conditions: minimum ATXN2-luc signal over 12 doses, H2 and S2 cells; summary data
[6] = in vitro; conditions: human
Description: The values for H2 and S2 were used as replicates to calculate IC50s and to assess cell viability.
Compounds were plated at 2× concentrations in phenol red–free DMEM in 25 μl in 384-well plates with each compound dose plated in triplicate. An equal volume of S2, H2, or SC cells (24,000 cells/well) suspended in phenol red–free DMEM with 10% fetal bovine serum and 1× penicillin/streptomycin were added. Cells were grown 24 h and then assayed first by using the CellTiter-Fluor reagent (20 μl) followed by the addition of Bright-Glo (65 μl) luciferase assay, using a multimode plate reader (Beckman; DT880). Values were reported as the mean ± SD with n = 3. IC50s were determined by the Hill coefficient method using an online tool (https://www.aatbio.com/tools/ic50-calculator).

[7] = tested on: CMV-luc; experiment: Secondary assays: CMV-luc in SC cells, Bright-Glo; format: cell-based, human; conditions: minimum CMV-luc signal in SC cells over 12 doses; summary data
[8] = tested on: ATXN2-luc; experiment: NCATS qHTS (LOPAC pilot, primary and confirmation): ATXN2-luc in S2 cells, 1536-well, Steady-Glo; format: cell-based, human; conditions: LOPAC library screening optimization
Method in brief: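 […] S2 cells expressing ATXN2-luc in phenol red–free DMEM screened in 1536-well qHTS format. Luciferase read by Steady-Glo luminescence after 5 min at room temperature (2 s exposure), multiplexed with CellTiter-Fluor viability.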

[9] = tested on: ATXN2-luc; experiment: ATXN2-luc mRNA by quantitative PCR in H2 cells; format: cell-based, human; conditions: 1 and 10 μM, 48 h
Description: treated with the indicated doses of DMAG for 48 hours, then ATXN2-luc mRNA abundance was
determined by quantitative PCR using primers that amplify the luciferase gene.

[10] = tested on: endogenous ATXN2; experiment: Endogenous ATXN2 mRNA by qPCR in HEK-293 cells; format: cell-based; conditions: Homo sapiens, HEK293; HEK-293 cells; read-out: IC50, endogenous ATXN2 transcription by qPCR
[11] = set-up: method as in PMID 24471734, PMID 15791458; conditions: ref [39], [40]; cited from earlier work
[12] = tested on: ATXN2-luc; experiment: ATXN2-luc luciferase dose-response in H2 cells, 48 h; format: cell-based; conditions: Homo sapiens, H2 cells, read-out: IC50 for lowering ATXN2-luc
[13] = tested on: BAC ATXN2-Q22 mice; experiment: Survival / tolerability of treated BAC ATXN2-Q22 mice; format: in vivo, mouse; conditions: 100 mg/kg intraperitoneal, every other day over 16 days
Description: Our study identified 11 compounds known to inhibit HSP90, including one that was identified in our original pilot screen. […] 17-DMAG inhibited transcription of ATXN2 in HEK-293 cells in a dose-dependent manner and reduced the abundance of endogenous and mutant ATXN2 proteins in HEK-293 cells (Figs. 3 and 4). […] Toxicity was evident in our in vivo experiment as well. […] However, like for 17-DMAG, BAC ATXN2-Q22 mice treated with HSP990 had 80% reduced ATXN2 protein abundance in the cerebellum (Fig. 5B).
(§2) Control-treated mice included vehicle alone.

[14] = tested on: HSP90; experiment: HSP90 target engagement: HSP70 abundance by Western blotting in HEK-293 cells; format: cell-based, human
[15] = tested on: mutant ATXN2-Q58 protein; experiment: Western blotting in HEK-293 ATXN2-Q58 KI cells; format: cell-based, human; conditions: 24 h
Description: (§3) To characterize a bioavailable HSP90 inhibitor, we proceeded by using 17-dimethylaminoethylamino-17-demethoxygeldanamycin (17-DMAG, also known as alvespimycin) for inhibition of ATXN2 in cultured cells instead of the original compounds identified in the screen.
Figure 4 Reduction of ATXN2 expression by 17-DMAG restores autophagy and ER stress phenotypes in ATXN2 mutant cells.A, ATXN2-Q58 HEK-293 cells were treated with 17-DMAG at the indicated doses for 24 h, and then proteins were evaluated by Western blotting. Untreated HEK-293 cells with normal A P-eIF2α TXN2 were also included. […] B, quantification of the blots in A. The n number of blots ranged from 3 to 9. Values are means and SD. Probabilities are from one-way ANOVA and post hoc Bonferroni-corrected t tests: ns; ∗p < 0.05; ∗∗p < 0.01, and ∗∗∗p < 0.001.

[16] = tested on: endogenous nonmutant ATXN2 protein; experiment: Western blotting of endogenous ATXN2 protein in HEK-293 cells; format: cell-based, human
Description: as §3
Experiments were repeated three times; values are means and SD.

[17] = tested on: ATXN2 protein; experiment: Cerebellar ATXN2 protein by Western blotting in BAC ATXN2-Q22 mice; format: in vivo, mouse; conditions: 100 mg/kg intraperitoneal, every other day over 16 days
Description: Figure 5 Effect of HSP90 inhibitors on ATXN2 cerebellar expression in vivo in BAC ATXN2-Q22 mice. Inhibition of ATXN2 expression by 17-DMAG (A) and HSP990 (B) versus vehicle controls. Mouse ID numbers are shown above the lanes. Western blot analysis showing upregulation of HSP70 expression following 17-DMAG treatment, which indicates successful HSP90 target engagement. The human transgenic ATXN2 protein is indicated as ATXN2-Q22 and the endogenous mouse protein as mATXN2. Values shown are mean and SD. Probabilities are from Student’s t tests: ∗p < 0.05; ∗∗∗p < 0.001. Three blots were quantified. ATXN2, ataxin-2; BAC, bacterial artificial chromosome; 17-DMAG, 17-dimethylaminoethylamino-17-demethoxygeldanamycin; HSP, heat shock protein.
as §2
Proteins were prepared, separated on precast polyacrylamide gels (Bio-Rad), transferred to Hybond (Amersham), and detected by enhanced chemiluminescence (Amersham) as previously described ([12], [27]). […]

## COc1ccc(CN2CCN(C(c3ccc(F)cc3)c3ccc(F)cc3)CC2)c(OC)c1OC [LOMERIZINE DiHCl]
[1]; 1 uM compound, average of H2 and S1 cells
  activity at 1 µM: 102%
[1]; head line r3 10uM, average of H2 and S1 cells, read-out: H2&S1 ave luc 10uM
  activity at 10 µM: 55%
[2]
  SD from mean (ATXN2-luc, Z-score): -2.782 SD
[2]; pilot screen
  SD from mean (pilot screen): -2.782 SD
  ¦Score/1SD¦: 3.09
[2]; pilot screen, H2 cells expressing ATXN2-luc, single dose printed as 10 μM compound
  SD from mean (pilot screen): -2.782
[3]; 1 uM compound, read-out: H2&S1 ave MTT 1uM
  viability at 1 µM: 101%
[3]; 10 uM compound, read-out: H2&S1 ave MTT 10uM
  viability at 10 µM: 37.6%
[4]; 0.1 uM compound
  CMV-luc, averages as percent of no compound control: 97.7058% of no compound control
[4]; 1 uM compound
  CMV-luc, averages as percent of no compound control: 102.901% of no compound control
[4]; 10 uM compound
  CMV-luc, averages as percent of no compound control: 80.3815% of no compound control
[4]; Homo sapiens, read-out: CMV-luc inhibition @ 1 uM
  inhibition at 1 µM: 0%
[4]; Homo sapiens, read-out: CMV-luc inhibition @ 10 uM
  inhibition at 10 µM: 20%
[4]; summary call for the 12 pilot compounds tested on CMV-luc
  ATXN2 luc activity (call): Unclear

## C[C@H]1O[C@@H](O[C@H]2[C@@H](O)C[C@H](O[C@H]3[C@@H](O)C[C@H](O[C@H]4CC[C@@]5(C)[C@H](CC[C@@H]6[C@@H]5C[C@@H](O)[C@]5(C)[C@@H](C7=CC(=O)OC7)CC[C@]65O)C4)O[C@@H]3C)O[C@@H]2C)C[C@H](O)[C@@H]1O [Digoxin]
[1]
  activity at 1 µM: 47%
[1]; read-out: H2&S1 ave luc 10uM
  activity: 12%
[2]
  SD from mean (ATXN2-luc, Z-score): -3.904 SD
[2]; pilot screen
  SD from mean (pilot screen): -3.904 SD
  ¦Score/1SD¦: 4.38
[2]; pilot screen at 10 µM compound, H2 cells expressing ATXN2-luc
  SD from mean (pilot screen): -3.904
[5]
  min ATXN2-luc (%): 9.041%
[3]; read-out: H2&S1 ave MTT 1uM, 1 uM compound
  viability at 1 µM: 78.7%
[3]; read-out: H2&S1 ave MTT 10uM, 10 uM compound
  viability at 10 µM: 73.5%
[6]
  viability at 24 h: 67.9%
[7]
  min SC luc (%): 107.579%

## CC[C@H](CO)Nc1nc(NCc2ccccc2)c2ncn(C(C)C)c2n1 [NCGC00094374-05, roscovitine]
[5]
  min ATXN2-luc (%): 57.3224%
[6]
  viability at 24 h: 77.8%
[7]
  min SC luc (%): 82.4469%
[8]; Homo sapiens, logarithm of AC50 (negative values), read-out: Log AC50 (converted)
  AC50: 28.2 µM
[8]; Homo sapiens, read-out: AC50
  AC50: 28.2 µM
[8]; logarithm of AC50 (negative values)
  Log AC50: -4.5
[8]; read-out: AC50
  AC50: 31.6 µM

## CO[C@H]1/C=C\C=C(/C)C(=O)NC2=CC(=O)C(NCCN(C)C)=C(C[C@@H](C)C[C@H](OC)[C@H](O)[C@@H](C)/C=C(\C)[C@@H]1OC(N)=O)C2=O [17-DMAG, 17-dimethylaminoethylamino-17-demethoxygeldanamycin]
[9]
  ATXN2-luc transcription (mRNA by qPCR): reduction of ATXN2-luc transcription
[9]; listed as DMAG
  ATXN2-luc transcription (mRNA by qPCR): reduces transcription of ATXN2-luc
[10]
  IC50: 0.759 µM
[11]
  Oral bioavailability and blood–brain barrier crossing: orally bioavailable and able to cross the blood–brain barrier
[12]
  IC50: 0.093 µM
[13]
  Tolerability in mice: well tolerated
[14]
  HSP70 abundance: significantly increased HSP70 abundance
[15]
  Mutant ATXN2 protein abundance: significantly reduced mutant ATXN2 protein
[16]
  Abundance of endogenous nonmutant ATXN2 protein: reduced the abundance of endogenous nonmutant ATXN2 protein
[17]
  Reduction of ATXN2 protein in the cerebellum: 90%
